In data set [1] the test system is VpEcR (SEQ ID NO:7) with RXR (CMX-hRXRa) in N13 cells. Description: Ecdysone responsiveness in stable cell line N13 (293 cells), ß-galactosidase and luciferase reporters. It counts as cell-based. The conditions noted are these: 36 hours. On the procedure: Stable cell lines were generated containing the modified ecdysone receptor VpEcR, a heterodimeric partner (RXR), and an ecdysone inducible reporter (Figure 2). 293 cells were transfected with the following linearized plasmids, pRC-ESHß, EcREx5-ΔMTV-Luc, CMX-VpEcR, and CMX-hRXRa. The following day, the cells were split 1:10 and were allowed to recover one day prior to selection with 1mg/ml G418 (GIBCO). After 14 days of selection, 14 individual clones were isolated and grown separately in the presence of 0.5mg/ml G418.
One of these cell lines, N13, was grown in the presence or absence of 1µM muristerone for 20 hours. Cell lysates were then assayed for ß-galactosidase and luciferase activities as described in Example 1. X-gal staining was performed on the stable cell lines. Cells were fixed briefly with 10% formaldehyde in PBS and then stained with X-Gal (Molecular Probes, Eugene, OR) for 2 to 6 hours. After 24 hours of treatment with 1µM muristerone, 100% of the cells turned dark blue after 3 hours of staining. Thus, mammalian cells containing the modified ecdysone receptor VpEcR, a heterodimeric partner (RXR), and a reporter gene construct regulated by a modified ecdysone response element, function to efficiently express an exogenous gene in response to a ligand, e.g., ecdysone. […]
Finally, the kinetics of muristerone mediated induction was measured. […]

The subject of data set [2] is CV-1 cells transfected with CMX-GEcR, CMX-hRXRa, and EcREx5-DMTV-Luc. Description: Muristerone bioavailability: serum of injected mice tested on transfected CV-1 cells. It counts as in vivo. The protocol:
For muristerone bioavailability studies, adult mice were injected intraperitoneally with sesame oil with or without 10mg of muristerone, and were subsequently sacrificed for serum collection. After twelve hours, blood was drawn from the mice, and the serum was isolated by brief centrifugation of the whole blood. In order to conduct transfection assays to test for muristerone activity, serum from sesame oil injected mice was divided, and half was supplemented with muristerone to a final concentration of 10µM. The three batches of mouse serum were diluted 1:10 in DMEM and placed onto CV-1 cells transfected with CMX-GEcR, CMX-hRXRa, and EcREx5-DMTV-Luc.

Another data set deals with pregnant mice. Description: Teratogenic study in pregnant mice. In kind it is in vivo. The conditions noted are these: 20mg muristerone A in sesame oil, mother and pups observed for three months.
For another data set, the system named is adult mice. As to the kind of experiment: Toxicity study in adult mice. It counts as in vivo. The following applies: 20mg muristerone A in sesame oil, intraperitoneal, observed approximately two months. On the procedure: In order to use muristerone as a potential hormone in mice, its toxicity and bioavailability was examined. For toxicity studies, adult mice were injected intraperitonealy with 20mg of muristerone A suspended in sesame oil. The mice were then observed for approximately two months. […] In addition to the inert qualities of muristerone (an ecdysone), overexpression of VpEcR and RXR appears not to be toxic.

The subject of data set [3] is modified ecdysone receptor VpEcR (SEQ ID NO:7; N-terminal truncation of EcR fused to VP16 activation domain) with RXR. Description: Transient transfection reporter assay in CV-1 cells, muristerone responsiveness. It counts as cell-based. The conditions noted are these: 1µM muristerone A vs no hormone. The protocol: (§1) CV-1 cells were maintained in DMEM supplemented with 10% Fetal Bovine Serum. Transient transfections were performed using DOTAP transfection reagent (Boehringer-Mannheim). Transfections using ß-galactosidase as the reporter were assayed either by Galactolight luminescent assay (Tropix, Bedford, MA) or by standard liquid ONPG assay (Sigma, St. Louis, MO). The values were normalized by co-transfection of CMX-luciferase. Transfections using luciferase as the reporter were assayed by standard techniques using luciferin and ATP. These values were normalized by co-transfection of CMX-ß-galactosidase. Hormone treated cells were treated with ethanol, 50 µM Juvenile Hormone III (Sigma), 1µM muristerone A (Zambon, Bresso, IT), or 1µM dexamethasone (Sigma) unless otherwise noted.

Data set [4] relates to VpEcR and RXR (CD3-VpEcR; CD3-RXR) with ecdysone inducible reporter ESHß. Description: Muristerone dependent gene expression in receptor/reporter transgenic mice, Northern blot. In kind it is in vivo. The conditions noted are these: 10mg muristerone intraperitoneal, RNA isolated 48 hours after treatment. The protocol:
To produce transgenic mice, the following DNA constructs were prepared and subsequently injected into fertilized eggs: CD3-VpEcR, CD3-RXR, ESHß (Lee et al., J. Exp. Med. 175:1013-1025 (1992)). Two separate lines of transgenic mice were generated harboring either an ecdysone inducible reporter, ESHß, or a T-cell specific expression construct of VpEcR and RXR, respectively. The former are referred to as reporter mice, the latter are referred to as receptor mice, and double transgenic mice are referred to as receptor/reporter mice. Constructs CD3-VpEcR and CD3-RXR were mixed and coinjected, while ESHß was injected alone. Primary genotyping was performed by Southern blot analysis and the transmission of transgenic mice was monitored by dot blot analysis. Receptor mice were analyzed for VpEcR and RXR expression by Northern blot analysis of RNA collected from these mice. For Northern blot analysis, 15µg of total RNA obtained from the thymus, and various tissues as a control, was run on a denaturing gel and blotted onto a nitrocellulose membrane. The blot was probed with a radiolabeled ß-gal-specific probe and exposed on film for 2 days. These receptor mice were healthy, fertile, and appeared normal by visual inspection. In addition, the transgene was transferred to the offspring as expected by Mendelian genetics. […]

In data set [5] the test system is ecdysone receptor (EcR) with its natural heterodimeric partner USP. As to the kind of experiment: Transient transfection reporter assay in CV-1 cells, muristerone responsiveness. The following applies: 1µM muristerone A vs ethanol. It counts as cell-based. The protocol:
as §1
(§2) To maximize the sensitivity of the invention ecdysone inducible system, modifications of the ecdysone receptor were made. The N-terminal transactivation domain of the ecdysone receptor was replaced by the corresponding domain of the glucocorticoid receptor (GR), resulting in the modified ecdysone receptor GEcR (See Figure 1D). CV-1 cells were transfected with the plasmid CMX-GEcR encoding the modified ecdysone receptor as discussed above. After transfection, cells were either treated with ethanol or 1µM muristerone A. This hybrid modified ecdysone receptor boosted muristerone responsiveness from 3- to 11-fold in a transient transfection assay (Fig. 1A).

For data set [6], the system named is modified ecdysone receptor GEcR (SEQ ID NO:9; N-terminal transactivation domain of GR, DNA- and ligand-binding domains of EcR) with USP. The data set is described as above. It counts as cell-based. The conditions noted are these: 1µM muristerone A vs ethanol. On the procedure:
as §1, §2

Data set [7] relates to modified ecdysone receptor GEcR (SEQ ID NO:9) with retinoid X receptor (RXR). The data set is described as above. In kind it is cell-based. The following applies: 1µM muristerone A vs ethanol. The protocol: as §1, §2

As to `CC(C)CC[C@@H](O)[C@](C)(O)[C@H]1CC[C@@]2(O)C3=CC(=O)[C@]4(O)C[C@@H](O)[C@@H](O)C[C@]4(C)[C@H]3[C@H](O)C[C@]12C` [muristerone A], the inducibility in [1] (final concentration 10µM muristerone, ß-galactosidase and luciferase reporters) is given as ~3 orders of magnitude. The results for the induction entry in data set [1] (muristerone concentrations as low as 100nM), in data set [3] and in [7] were “One-hundred”, 212 fold and 34 fold, respectively. In addition, the “luciferase activity of serum from muristerone treated mice” value in [2] (10mg muristerone intraperitoneal, serum after twelve hours, diluted 1:10 in DMEM) is listed as “comparable to that seen from untreated mouse serum supplemented with 1µM muristerone”. Also, the “activity when injected into mice” value in data set [2] (injected into mice) was “maintains its activity”. Besides, in data set [2] (injected into mice), the “inactivation by serum binding proteins” value is recorded as “nor inactivated by serum binding proteins”. The “blunting of activity due to association with serum proteins” value in data set [2] (mouse serum) is “little or no blunting of activity”. Besides, the teratogenicity result in the data set with pregnant mice was “neither toxic, teratogenic”. Moreover, in the data set with adult mice, the toxicity entry is “neither toxic”. Also, the “induction from an ecdysone inducible promoter in the thymus” value in [4] is on record as “significant induction”. The figures for the “muristerone responsiveness (induction)” value in [5] and in data set [6] were 3 fold and 11 fold, respectively.

The record behind these values is patent EP0910652B1, “HORMONE-MEDIATED METHODS FOR […] EXOGENOUS GENES IN MAMMALIAN SYSTEMS, AND PRODUCTS RELATED THERETO” (THE SALK INSTITUTE FOR BIOLOGICAL STUDIES, priority 1996, dated 1997).
